# Legend:
# [1] = Example 1: plasma total cholesterol in WHHL rabbits; format: in vivo; settings: pravastatin 50 mg/kg/day oral gavage, troglitazone in diet containing 100 mg/kg
# Procedure: (§1) WHHL rabbits [2-3 months of age, the Watanabe heritable hyperlipidemic rabbit described in Biochimica et Biophysica Acta, 960, 294-302 (1988)] were randomly assigned to a control group (7 animals, group A), a group receiving pravastatin alone (5 animals, Group B), a group receiving troglitazone alone (7 animals, Group C), and a group receiving a combination of both active substances (6 animals, Group D). Pravastatin was administered orally by gavage at a dose of 50 mg/kg/day once-daily and troglitazone was given in the diet, containing 100 mg/kg of the substance for 32 weeks. The ingested amount was limited to a daily 120 g per rabbit. Blood was withdrawn from the animal immediately before starting the study and 4, 8, 12, 16, 20, 24, 28 and 32 weeks after starting the study and the total cholesterol levels (mg/dl) were determined for each blood sample. The levels are reported as a percentage (%) of the levels measured immediately before starting the study. The animals were sacrificed and necropsied at week 32 to examine (a) the percent lesion area (%) in the total, thoracic or abdominal portion of the aorta; (b) the stenosis (%) of the coronary arteries and (c) the incidence (%) of xanthoma in the digital joints.
# WHHL rabbits [2] = test: Example 1: percent lesion area of the aorta in WHHL rabbits; format: in vivo; settings: week 32, mean ± standard error, pravastatin 50 mg/kg/day, troglitazone in diet containing 100 mg/kg, * p < 0.05 vs control
# Procedure: as §1
# (§2) The values actually measured are represented as an average value±standard error in those Tables.
# WHHL rabbits [3] = test: Example 1: stenosis of the coronary arteries in WHHL rabbits; format: in vivo; settings: week 32
# Procedure: as §1, §2
# WHHL rabbits [4] = test: Example 1: incidence of xanthoma in the digital joints of WHHL rabbits; format: in vivo
# Procedure: as §1, §2
# WHHL rabbits [5] = test: Example 2: percentage area covered by lesions, aortic arch and whole aorta; format: in vivo, Male WHHL rabbits; design: Lesion Area, Aortic Arch, percentage against the control group / Lesion Area, Total Aorta, percentage against the control group: concentration or dose not given beside the values; settings: oral, eight months
# Procedure: (§3) Each test compound was administered for eight months to the rabbits in the form of an aqueous suspension (0.5% carboxymethylcellulose added). In the control group, a 0.5% carboxymethylcellulose solution only was administered.
# The values actually measured are represented by the mean value plus or minus standard error. The numbers in parentheses represent the percentage lesion area against the control group.
# *p<0.05, **p<0.01; significant difference against the control group under the [Mann-Whitney's U-Test A significant difference (p<0.05) was observed between Groups B and F, between Groups C and E and between Groups D and F at the aortic arch, and between Groups C and E over the total aorta.
# WHHL rabbits [6] = test: Example 2: average thickening of intima in aorta; format: in vivo, Male WHHL rabbits; design: Average thickening of intima, Aortic Arch, percentage against the control group / Average thickening of intima, Total Aorta, percentage against the control group: concentration or dose not given beside the values
# Procedure: as §3
# The values actually measured are represented as the mean value plus or minus a standard error (μm). The numbers in parentheses represent the percentage intimal thickening against the control group. A significant difference was observed between Groups D and F at the aortic arch, and between Groups C and E and between Groups D and F over the total aorta (p<0.05) under the Mann-Whitney's U-Test.
# The average thickening of the intima is calculated by the cross-sectional area of the aortic tunica intima one section from the arch and two sections from the thoracic and abdominal portions, divided by the length of the tunica media.
# WHHL rabbits [7] = test: Example 2: incidence and degree of xanthoma of the four legs; format: in vivo, Male WHHL rabbits; design: Frequency of massive xanthoma: unit not given here
# Procedure: as §3
# The incidence and the degree of xanthoma of the four legs were measured.
# [8] = tested on: Male New Zealand white rabbits; test: Example 3: regression of established atherosclerotic lesions in the cholesterol-fed rabbit model; format: in vivo; settings: for Rate of lesion area, against the control group: figure in parentheses; for Rate of lesion area: thoracic aorta, two months, mean ± standard error, control 29 ± 20
# Procedure: The rabbits were grouped randomly (3-9 animals per group) and the test samples were administered orally for two months, while they were fed with a normolipidaemic diet. […] The results are shown in terms of the percentage of lesion area in the thoracic aorta.
# Male Fl b hamsters = test: Example 4: regression of preformed atherosclerosis in hamsters (Oil Red O stained area); format: in vivo
# Procedure: Synergism of HMG CoA reductase inhibitors and thiazolidinedione insulin sensitizers was examined by another regression model, i.e. the regression of preformed atherosclerosis in hamsters. Male Fl b hamsters (weight about 130 g,) were given a diet containing 0.05% cholesterol for 13 weeks. They were grouped randomly (2-7 animals per group), and then the test samples were administered for 4 weeks while the hamsters were given a normolipidaemic diet. Pravastatin and fluvastatin were mixed with drinking water at the dose of 3 mg/kg and 1.5 mg/kg, respectively, while troglitazone was mixed with the diet at the dose of 30 mg/kg or 100 mg/kg.
# In the case of the combination groups, the dosage was 3 mg/kg+30 mg/kg or 3 mg/kg+100 mg/kg for the pravastatin+troglitazone group, and 1.5 mg/kg+30 mg/kg for the fluvastatin+troglitazone group.
# Namely, the aortic arch was stained with ORO to prepare en face specimens. The percentage area which was positive to the ORO stain over the whole area was measured to represent the degree of aortic lesion.
# [9] = tested on: coronary arteriosclerosis and xanthoma; settings: literature: Biochim. Biophys. Acta 960, 294-302 (1988); Atherosclerosis 83, 69-80 (1990); cited from earlier work
# [10] = oral, eight months, control 100 (14/14), *p < 0.05, **p < 0.01 vs control
smiles,measurement,setting,value
"CC[C@H](C)C(=O)O[C@H]1C[C@H](O)C=C2C=C[C@H](C)[C@H](CC[C@@H](O)C[C@@H](O)CC(=O)O)[C@H]21 [Pravastatin, sodium 1,2,6,7,8,8a-hexahydro-6,8-tetrahydroxy-2-methyl-1-naphthaleneheptanoate]","total cholesterol level, % of level before starting the study",[1]; week 4,87%
same,"total cholesterol level, % of level before starting the study",[1]; week 8,87%
same,"total cholesterol level, % of level before starting the study",[1]; week 12,81%
same,"total cholesterol level, % of level before starting the study",[1]; week 16,81%
same,"total cholesterol level, % of level before starting the study",[1]; week 20,75%
same,"total cholesterol level, % of level before starting the study",[1]; week 24,68%
same,"total cholesterol level, % of level before starting the study",[1]; week 28,68%
same,"total cholesterol level, % of level before starting the study",[1]; week 32,60%
same,"Lesion area, Abdominal aorta",WHHL rabbits [2]; control 29.9 ± 4.4,28.2 ± 8.1%
same,"Lesion Area, Total Aorta",WHHL rabbits [2]; control 65.7 ± 3.9,53.8 ± 8.2%
same,"Lesion area, Thoracic aorta",WHHL rabbits [2]; control 79.3 ± 5.4,64.6 ± 10.4%
same,"Coronary stenosis, RCA (right coronary artery)",WHHL rabbits [3]; control 13,18%
same,"Coronary stenosis, LAD (left anterior descending artery)",WHHL rabbits [3]; control 24,16%
same,"Coronary stenosis, LSP (left septal artery)",WHHL rabbits [3]; control 40,9%
same,"Coronary stenosis, LCX (left circumflex artery)",WHHL rabbits [3]; control 47,34%
same,"Coronary stenosis, MLC (main left coronary artery)",WHHL rabbits [3]; control 61,71%
same,"Coronary stenosis, MRC (main right coronary artery)",WHHL rabbits [3]; control 79,81%
same,"Incidence of xanthoma, Foreleg","WHHL rabbits [4]; week 32, control 100 (14/14)",80%
same,"Incidence of xanthoma, Hind leg","WHHL rabbits [4]; week 32, control 100 (14/14)",80%
same,"Incidence of xanthoma, Total","WHHL rabbits [4]; week 32, control 100 (28/28)",80%
same,"Lesion Area, Aortic Arch, percentage against the control group",WHHL rabbits [5]; number in parentheses,72%
same,"Lesion Area, Total Aorta, percentage against the control group",WHHL rabbits [5]; number in parentheses,70%
same,"Lesion Area, Total Aorta","WHHL rabbits [5]; pravastatin 50, pioglitazone 20, Compound A 10 mg/kg, mean ± standard error, *p<0.05, **p<0.01 vs control",35 ± 6%
same,"Lesion Area, Aortic Arch","WHHL rabbits [5]; pravastatin 50, pioglitazone 20, Compound A 10 mg/kg, mean ± standard error, control 82 ± 5, *p<0.05, **p<0.01 vs control",59 ± 11%
same,suppression of intimal thickening,WHHL rabbits [6]; combinations compared with Groups C and D,slight suppression of intimal thickening
same,"Average thickening of intima, Aortic Arch, percentage against the control group",WHHL rabbits [6]; number in parentheses,82%
same,"Average thickening of intima, Total Aorta, percentage against the control group",WHHL rabbits [6]; number in parentheses,82%
same,"Average thickening of intima in aorta, Total Aorta","WHHL rabbits [6]; oral, eight months, pravastatin 50, pioglitazone 20, Compound A 10 mg/kg, mean ± standard error, control 154 ± 33",126 ± 22 μm
same,"Average thickening of intima in aorta, Aortic Arch","WHHL rabbits [6]; oral, eight months, pravastatin 50, pioglitazone 20, Compound A 10 mg/kg, mean ± standard error, control 237 ± 63",194 ± 42 μm
same,Frequency of massive xanthoma,"WHHL rabbits [7]; control 57, *p < 0.05, **p < 0.01 vs control",42
same,incidence of xanthoma,WHHL rabbits [7]; forelegs and hindlegs,slightly less frequent incidence of xanthoma
same,Distribution of severity of lesion: (-) no lesions,"WHHL rabbits [7]; number of legs, control 0",3
same,Distribution of severity of lesion: (+++) severe lesion,"WHHL rabbits [7]; number of legs, control 6",2
same,Distribution of severity of lesion: (++) moderate lesion,"WHHL rabbits [7]; number of legs, control 10",8
same,Distribution of severity of lesion: (+) slight lesion,"WHHL rabbits [7]; number of legs, control 12",11
same,"Incidence of xanthoma, Forelegs",WHHL rabbits [7]; [10],100%
same,"Incidence of xanthoma, Hindlegs",WHHL rabbits [7]; [10],75%
same,"Incidence of xanthoma, Total","WHHL rabbits [7]; oral, eight months, control 100 (28/28), *p < 0.05, **p < 0.01 vs control",88%
same,"Rate of lesion area, against the control group",[8]; 3 mg/kg,103
same,"Rate of lesion area, against the control group",[8]; 5 mg/kg,79
same,Rate of lesion area,[8]; 3 mg/kg oral,30 ± 12%
same,Rate of lesion area,[8]; 5 mg/kg oral,23 ± 9%
same,"Stained Area, % of Control",Male Fl b hamsters; 3 mg/kg,106%
same,Stained Area ORO,"Male Fl b hamsters; aortic arch, 3 mg/kg in drinking water, 4 weeks, control 1.82 ± 0.44",1.93 ± 0.33%
same,regression of aortic lesions,"Male Fl b hamsters; pravastatin 3 mg/kg, fluvastatin 1.5 mg/kg, troglitazone 30 mg/kg alone, combinations",no regression of aortic lesions
same,"prevention of coronary arteriosclerosis and xanthoma, efficacy",[9],"may be prevented in rabbits receiving pravastatin, but its efficacy remains insufficient"

# Source: patent US5798375A, “Treatment of arteriosclerosis and xanthoma” (Sankyo Company, Limited, priority 1995, dated 1998)
